Patent publication US5424441A, “N-aralkyl-and N-heteroaralkyl-aminoalkanephosphinic acids” (Ciba-Geigy Corporation, priority 1994, dated 1995)

Tested on: "epileptic-like" discharges from pyramidal cells
Test: penicillin-induced "epileptic" hippocampus section preparation, electrophysiological model in vitro
Assay type: cell-based
Conditions: read-out: concentration at which "epileptic-like" discharges from pyramidal cells are inhibited

NCC(CC(=O)O)c1ccc(Cl)cc1 (stereo not shown) [baclofen]
minimal effective concentration: 6 µM
